Reference: ChEMBL document CHEMBL1765075, “Discovery and structure-activity relationship of 3-aminopyrid-2-ones as potent and selective interleukin-2 inducible T-cell kinase (Itk) inhibitors” (J Med Chem, 2011)
≈ marks a conversion by molar mass, not a printed value. Calls of active or inactive are those of the source. The calls are words filed in the database; no cut-off is given here.

How the values were obtained:
[1] = target: Mast/stem cell growth factor receptor Kit (Homo sapiens, UniProt P10721); test: Inhibition of c-Kit after 45 mins by radiometric phosphate incorporation assay
[2] = target: T1, Receptor-type tyrosine-protein kinase FLT3 (Homo sapiens, UniProt P36888); test: Inhibition of Flt3 after 20 mins by radiometric phosphate incorporation assay
T1 sequence (P36888 whole entry): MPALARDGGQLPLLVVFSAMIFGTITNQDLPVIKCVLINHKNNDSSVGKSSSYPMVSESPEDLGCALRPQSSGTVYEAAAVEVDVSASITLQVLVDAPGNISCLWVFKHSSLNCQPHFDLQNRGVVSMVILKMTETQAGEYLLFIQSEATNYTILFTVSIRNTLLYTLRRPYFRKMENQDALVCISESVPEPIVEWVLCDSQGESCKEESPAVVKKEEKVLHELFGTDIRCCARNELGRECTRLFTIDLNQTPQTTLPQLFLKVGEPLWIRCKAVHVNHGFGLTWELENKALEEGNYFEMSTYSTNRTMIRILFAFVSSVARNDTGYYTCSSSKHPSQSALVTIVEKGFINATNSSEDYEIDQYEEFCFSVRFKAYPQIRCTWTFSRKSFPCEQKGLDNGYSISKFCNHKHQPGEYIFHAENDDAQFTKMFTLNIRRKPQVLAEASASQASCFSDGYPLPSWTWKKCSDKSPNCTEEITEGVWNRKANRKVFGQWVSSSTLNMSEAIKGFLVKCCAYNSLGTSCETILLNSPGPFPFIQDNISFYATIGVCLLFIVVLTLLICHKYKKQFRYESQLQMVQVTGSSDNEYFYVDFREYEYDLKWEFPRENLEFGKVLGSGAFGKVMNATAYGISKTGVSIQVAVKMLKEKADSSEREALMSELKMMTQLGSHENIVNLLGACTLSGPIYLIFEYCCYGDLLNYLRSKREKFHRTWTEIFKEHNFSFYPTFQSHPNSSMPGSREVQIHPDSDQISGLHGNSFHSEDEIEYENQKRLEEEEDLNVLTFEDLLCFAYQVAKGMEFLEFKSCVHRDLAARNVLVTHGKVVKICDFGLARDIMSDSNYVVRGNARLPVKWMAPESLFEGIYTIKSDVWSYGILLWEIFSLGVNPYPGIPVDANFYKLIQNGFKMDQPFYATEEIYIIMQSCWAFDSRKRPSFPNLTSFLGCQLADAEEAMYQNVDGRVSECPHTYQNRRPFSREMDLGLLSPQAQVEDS

[3] = target: T2, Tyrosine-protein kinase ITK/TSK (Homo sapiens, UniProt Q08881); test: Inhibition of Itk after 40 mins by radiometric phosphate incorporation assay
T2 sequence (Q08881 whole entry): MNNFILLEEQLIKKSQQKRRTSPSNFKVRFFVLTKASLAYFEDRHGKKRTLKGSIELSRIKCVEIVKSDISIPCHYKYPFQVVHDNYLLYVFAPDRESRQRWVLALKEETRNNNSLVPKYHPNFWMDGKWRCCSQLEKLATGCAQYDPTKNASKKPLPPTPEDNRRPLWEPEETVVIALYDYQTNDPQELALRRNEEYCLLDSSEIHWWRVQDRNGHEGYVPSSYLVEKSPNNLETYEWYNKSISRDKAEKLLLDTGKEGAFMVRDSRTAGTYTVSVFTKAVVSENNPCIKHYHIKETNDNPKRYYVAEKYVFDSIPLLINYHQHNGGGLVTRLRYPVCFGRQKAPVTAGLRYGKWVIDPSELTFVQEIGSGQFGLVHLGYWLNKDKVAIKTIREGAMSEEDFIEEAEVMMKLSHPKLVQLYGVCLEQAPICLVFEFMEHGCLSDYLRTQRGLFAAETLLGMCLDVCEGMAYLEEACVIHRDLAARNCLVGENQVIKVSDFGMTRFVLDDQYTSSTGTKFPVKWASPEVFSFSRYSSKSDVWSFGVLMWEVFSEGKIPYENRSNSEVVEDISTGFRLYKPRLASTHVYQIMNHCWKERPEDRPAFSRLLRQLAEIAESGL

[4] = target: Proto-oncogene tyrosine-protein kinase Src (Homo sapiens, UniProt P12931); test: Inhibition of Src after 10 mins by radiometric phosphate incorporation assay
[5] = Solubility of the compound in phosphate buffer at pH 7.4 by high throughput shake flask assay; type: physicochemical
[6] = Permeability across apical to basolateral side of human Caco2 cells after 120 mins by LC-MS/MS analysis; type: ADME, cell-based; settings: Caco-2, read-out: permeability
[7] = Permeability across basolateral to apical side of human Caco2 cells after 120 mins by LC-MS/MS analysis; type: ADME, cell-based; settings: Caco-2, read-out: permeability
[8] = Octanol-phosphate buffer partition coefficient, log D of the compound at pH 7.4 by HPLC analysis; type: physicochemical
[9] = target: Tyrosine-protein kinase ITK/TSK (Homo sapiens) (UniProt Q08881); settings: 3 uM
Description: Inhibition of Itk at 3 uM after 40 mins by radiometric phosphate incorporation assay

[10] = target: Tyrosine-protein kinase ITK/TSK (Homo sapiens) (UniProt Q08881); test: Inhibition of Itk at 30 uM after 40 mins by radiometric phosphate incorporation assay

Mast/stem cell growth factor receptor Kit, sequence (P10721 whole entry): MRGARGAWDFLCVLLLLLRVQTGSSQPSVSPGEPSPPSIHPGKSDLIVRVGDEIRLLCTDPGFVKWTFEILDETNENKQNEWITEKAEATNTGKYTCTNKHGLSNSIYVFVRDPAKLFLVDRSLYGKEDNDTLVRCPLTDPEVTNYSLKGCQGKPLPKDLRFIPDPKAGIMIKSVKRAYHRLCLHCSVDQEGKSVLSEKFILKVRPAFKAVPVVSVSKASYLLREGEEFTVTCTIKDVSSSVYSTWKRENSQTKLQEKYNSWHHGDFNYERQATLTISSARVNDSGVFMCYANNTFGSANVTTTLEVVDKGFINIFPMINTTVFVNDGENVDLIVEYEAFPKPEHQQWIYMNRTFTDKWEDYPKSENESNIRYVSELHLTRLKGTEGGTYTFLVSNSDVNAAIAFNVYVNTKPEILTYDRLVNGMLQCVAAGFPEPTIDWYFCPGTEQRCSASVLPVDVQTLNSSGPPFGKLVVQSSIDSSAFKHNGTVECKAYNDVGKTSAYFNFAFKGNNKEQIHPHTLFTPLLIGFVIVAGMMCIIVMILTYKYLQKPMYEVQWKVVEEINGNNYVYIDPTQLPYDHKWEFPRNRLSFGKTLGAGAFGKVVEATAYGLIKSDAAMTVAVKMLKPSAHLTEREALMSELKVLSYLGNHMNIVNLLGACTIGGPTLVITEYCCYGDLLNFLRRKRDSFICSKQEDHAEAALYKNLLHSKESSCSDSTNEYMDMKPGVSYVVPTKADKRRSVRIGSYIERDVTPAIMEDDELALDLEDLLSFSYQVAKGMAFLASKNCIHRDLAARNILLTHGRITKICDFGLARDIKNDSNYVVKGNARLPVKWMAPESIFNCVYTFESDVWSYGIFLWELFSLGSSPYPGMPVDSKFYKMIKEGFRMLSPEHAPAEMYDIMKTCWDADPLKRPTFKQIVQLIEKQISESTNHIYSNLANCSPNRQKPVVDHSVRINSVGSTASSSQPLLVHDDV
Proto-oncogene tyrosine-protein kinase Src, sequence (P12931 2-536 limits assumed): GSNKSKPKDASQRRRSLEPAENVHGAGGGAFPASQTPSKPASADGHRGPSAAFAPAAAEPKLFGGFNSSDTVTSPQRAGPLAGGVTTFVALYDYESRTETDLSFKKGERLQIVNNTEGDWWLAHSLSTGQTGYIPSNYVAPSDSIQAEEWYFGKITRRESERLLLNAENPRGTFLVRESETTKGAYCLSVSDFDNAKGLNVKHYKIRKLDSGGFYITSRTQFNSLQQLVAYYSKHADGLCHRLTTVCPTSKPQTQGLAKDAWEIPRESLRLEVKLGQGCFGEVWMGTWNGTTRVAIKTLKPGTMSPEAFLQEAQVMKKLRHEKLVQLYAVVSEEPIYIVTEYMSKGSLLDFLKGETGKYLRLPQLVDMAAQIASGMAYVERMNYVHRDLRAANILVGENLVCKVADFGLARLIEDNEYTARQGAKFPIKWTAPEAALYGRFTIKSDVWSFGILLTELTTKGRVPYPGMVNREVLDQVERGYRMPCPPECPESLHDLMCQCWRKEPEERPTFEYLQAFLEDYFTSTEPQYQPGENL

Ki [1]	Ki [2]	Ki [3]	Ki [4]	SMILES	also measured
		> 30000 nM		O=C(Nc1cc(-c2ccncc2)c[nH]c1=O)C1CCCCC1	
12 nM	6 nM			CNc1cc(-c2c[nH]c(=O)c(NC(=O)c3ccc(N4CCCCC4)cc3)c2)ccn1	
		530 nM		CCc1ccc(C(=O)Nc2cc(-c3ccncc3)c[nH]c2=O)cc1	
< 10 nM	5 nM	16 nM		CNc1nccc(-c2c[nH]c(=O)c(NC(=O)c3ccc(N4CCCCC4)cc3)c2)n1	
81 nM	80 nM	145 nM	220 nM	CNc1cccc(-c2c[nH]c(=O)c(NC(=O)c3ccc(N4CCCCC4)cc3)c2)c1	
		2100 nM		Cc1cccc(C(=O)Nc2cc(-c3ccncc3)c[nH]c2=O)c1	
		> 6000 nM		N#Cc1ccc(C(=O)Nc2cc(-c3ccncc3)c[nH]c2=O)cc1	inhibition [9]: 15%
		170 nM		O=C(Nc1cc(-c2ccncc2)c[nH]c1=O)c1ccc(N2CCCC2)cc1	
1300 nM	140 nM	20 nM	280 nM	CNc1cncc(-c2c[nH]c(=O)c(NC(=O)c3ccc(N4CCC[C@H]4CN4CCCC4)cc3)c2)c1	solubility thermodynamic [5]: 115 µg/mL (≈ 243 µM); logD [8]: 2.9
148 nM	69 nM			CNc1cccc(-c2c[nH]c(=O)c(NC(=O)c3ccc(N4CCCCC4)cc3)c2)n1	
27 nM	11 nM	120 nM	1320 nM	CC(C)(C)c1ccc(C(=O)Nc2cc(-c3ccncc3)c[nH]c2=O)cc1	
83 nM	20 nM			CNc1cc(-c2c[nH]c(=O)c(NC(=O)c3ccc(N4CCCCC4)cc3)c2)ncn1	

The next lines start with the compound.

SMILES	Ki [1]	Ki [2]	Ki [3]	Ki [4]	also measured
CNc1cncc(-c2c[nH]c(=O)c(NC(=O)c3ccc(N4CCCCC4)cc3)c2)n1	155 nM	110 nM			
CNc1cncc(-c2c[nH]c(=O)c(NC(=O)c3ccc(N4CCCCC4)cc3)c2)c1	270 nM	1050 nM			
CN(C)c1ccc(C(=O)Nc2cc(-c3ccncc3)c[nH]c2=O)cc1	46 nM	8 nM	210 nM	2800 nM	
O=C(Nc1ccc(N2CCCCC2)cc1)c1cc(-c2ccncc2)c[nH]c1=O			140 nM		
O=C(Nc1cc(-c2ccncc2)c[nH]c1=O)c1ccccc1			1300 nM		
CNc1cc(F)cc(-c2c[nH]c(=O)c(NC(=O)c3ccc(N4CCC[C@H]4CN4CCCC4)cc3)c2)c1	400 nM	80 nM	20 nM	300 nM	solubility thermodynamic [5]: 34 µg/mL (≈ 69.4 µM); Papp A→B at 2 h [6]: 3.3 ×10⁻⁶ cm/s; Papp B→A at 2 h [7]: 19.9 ×10⁻⁶ cm/s; logD [8]: 3.9
CNc1cc(C#N)cc(-c2c[nH]c(=O)c(NC(=O)c3ccc(N4CCC[C@H]4CN4CCCC4)cc3)c2)c1	400 nM	410 nM	27 nM	480 nM	solubility thermodynamic [5]: 23 µg/mL (≈ 46.3 µM); Papp A→B at 2 h [6]: 3.3 ×10⁻⁶ cm/s; Papp B→A at 2 h [7]: 16.4 ×10⁻⁶ cm/s; logD [8]: 3.9
O=C(Nc1cc(-c2ccncc2)c[nH]c1=O)c1ccc(C2CCCCC2)cc1			220 nM		
O=C(Nc1cc(-c2ccncc2)c[nH]c1=O)c1ccc(N2CCCCC2)cc1	12 nM	32 nM		1800 nM	
Nc1cc(-c2ccncc2)c[nH]c1=O					inhibition [10]: inactive
O=C(Cc1ccccc1)Nc1cc(-c2ccncc2)c[nH]c1=O			> 30000 nM		
O=C(Nc1cc(-c2cccc(NC3CC3)n2)c[nH]c1=O)c1ccc(N2CCCCC2)cc1		120 nM	> 2000 nM	> 4000 nM	
